What all share (conditions): Compound concentration 10 µM
Assay [1] concerns the target Histamine H1 receptor (Homo sapiens) (UniProt P35367).
Description: PDSP Primary Binding target: HRH1 - Compounds are tested at 10 uM concentration, plate are incubated at room temperature in the dark for 90 minutes. Reaction are stopped by vacuum filtration onto 0.3% polyethyleneimine soaked filter mats using Filtermate harvester. Scintilation cocktail is then melted onto microwave-dried filters on a hot plate and the radio activity is counted in Microbia counter.
Assay [2] has as its target T1, Muscarinic acetylcholine receptor M4 (Homo sapiens) (UniProt P08173).
T1 sequence (whole entry): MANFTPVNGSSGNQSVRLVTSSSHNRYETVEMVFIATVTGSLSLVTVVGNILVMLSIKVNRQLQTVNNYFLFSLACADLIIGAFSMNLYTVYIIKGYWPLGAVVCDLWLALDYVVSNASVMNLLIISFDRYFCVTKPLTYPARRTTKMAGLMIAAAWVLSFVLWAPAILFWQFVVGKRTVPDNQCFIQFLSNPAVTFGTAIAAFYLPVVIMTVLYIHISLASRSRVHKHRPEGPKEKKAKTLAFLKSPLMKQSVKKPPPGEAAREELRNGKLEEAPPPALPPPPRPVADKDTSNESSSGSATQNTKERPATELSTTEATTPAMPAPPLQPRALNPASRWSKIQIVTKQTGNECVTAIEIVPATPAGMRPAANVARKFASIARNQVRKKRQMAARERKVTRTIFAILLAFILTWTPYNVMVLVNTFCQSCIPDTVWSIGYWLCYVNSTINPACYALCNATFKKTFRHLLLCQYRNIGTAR
Description: PDSP Primary Binding target: CHRM4 - Compounds are tested at 10 uM concentration, plate are incubated at room temperature in the dark for 90 minutes. Reaction are stopped by vacuum filtration onto 0.3% polyethyleneimine soaked filter mats using Filtermate harvester. Scintilation cocktail is then melted onto microwave-dried filters on a hot plate and the radio activity is counted in Microbia counter.

Assay [3] deals with T2, Muscarinic acetylcholine receptor M2 (Homo sapiens) (UniProt P08172).
T2 sequence (whole entry): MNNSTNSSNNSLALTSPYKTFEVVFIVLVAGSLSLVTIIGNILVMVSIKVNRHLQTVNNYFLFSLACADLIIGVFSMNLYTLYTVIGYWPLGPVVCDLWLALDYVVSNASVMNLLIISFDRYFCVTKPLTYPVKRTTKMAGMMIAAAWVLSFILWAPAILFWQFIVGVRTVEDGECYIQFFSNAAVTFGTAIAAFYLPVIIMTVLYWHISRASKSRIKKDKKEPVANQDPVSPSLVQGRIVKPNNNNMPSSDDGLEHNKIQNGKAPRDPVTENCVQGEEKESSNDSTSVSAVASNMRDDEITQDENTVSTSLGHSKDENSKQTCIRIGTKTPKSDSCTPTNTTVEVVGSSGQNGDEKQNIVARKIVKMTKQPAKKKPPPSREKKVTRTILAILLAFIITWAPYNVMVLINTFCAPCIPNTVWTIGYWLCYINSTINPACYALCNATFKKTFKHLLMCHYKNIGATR
Description: PDSP Primary Binding target: CHRM2 - Compounds are tested at 10 uM concentration, plate are incubated at room temperature in the dark for 90 minutes. Reaction are stopped by vacuum filtration onto 0.3% polyethyleneimine soaked filter mats using Filtermate harvester. Scintilation cocktail is then melted onto microwave-dried filters on a hot plate and the radio activity is counted in Microbia counter.

Assay [4] has as its target 5-hydroxytryptamine receptor 5A (Homo sapiens) (UniProt P47898).
Description: PDSP Primary Binding target: HTR5A - Compounds are tested at 10 uM concentration, plate are incubated at room temperature in the dark for 90 minutes. Reaction are stopped by vacuum filtration onto 0.3% polyethyleneimine soaked filter mats using Filtermate harvester. Scintilation cocktail is then melted onto microwave-dried filters on a hot plate and the radio activity is counted in Microbia counter.
Assay [5] deals with T3, Alpha-1B adrenergic receptor (Homo sapiens) (UniProt P35368).
T3 sequence (whole entry): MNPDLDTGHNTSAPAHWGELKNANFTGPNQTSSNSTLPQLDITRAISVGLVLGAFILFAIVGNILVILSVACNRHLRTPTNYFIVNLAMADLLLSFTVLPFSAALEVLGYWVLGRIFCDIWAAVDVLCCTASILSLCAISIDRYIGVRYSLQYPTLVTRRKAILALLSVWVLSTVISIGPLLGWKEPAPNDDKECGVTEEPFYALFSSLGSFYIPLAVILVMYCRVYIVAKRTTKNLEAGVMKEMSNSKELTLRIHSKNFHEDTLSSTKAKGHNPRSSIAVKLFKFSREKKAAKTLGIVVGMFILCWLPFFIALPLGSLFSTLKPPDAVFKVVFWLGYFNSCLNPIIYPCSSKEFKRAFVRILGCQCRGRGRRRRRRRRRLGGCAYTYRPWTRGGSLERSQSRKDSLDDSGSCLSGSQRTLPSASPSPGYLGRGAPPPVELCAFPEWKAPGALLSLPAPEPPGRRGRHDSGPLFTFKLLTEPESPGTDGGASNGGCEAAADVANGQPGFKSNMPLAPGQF
Description: PDSP Primary Binding target: ADRA1B - Compounds are tested at 10 uM concentration, plate are incubated at room temperature in the dark for 90 minutes. Reaction are stopped by vacuum filtration onto 0.3% polyethyleneimine soaked filter mats using Filtermate harvester. Scintilation cocktail is then melted onto microwave-dried filters on a hot plate and the radio activity is counted in Microbia counter.

Assay [6] concerns the target T4, Alpha-1D adrenergic receptor (Homo sapiens) (UniProt P25100).
T4 sequence (whole entry): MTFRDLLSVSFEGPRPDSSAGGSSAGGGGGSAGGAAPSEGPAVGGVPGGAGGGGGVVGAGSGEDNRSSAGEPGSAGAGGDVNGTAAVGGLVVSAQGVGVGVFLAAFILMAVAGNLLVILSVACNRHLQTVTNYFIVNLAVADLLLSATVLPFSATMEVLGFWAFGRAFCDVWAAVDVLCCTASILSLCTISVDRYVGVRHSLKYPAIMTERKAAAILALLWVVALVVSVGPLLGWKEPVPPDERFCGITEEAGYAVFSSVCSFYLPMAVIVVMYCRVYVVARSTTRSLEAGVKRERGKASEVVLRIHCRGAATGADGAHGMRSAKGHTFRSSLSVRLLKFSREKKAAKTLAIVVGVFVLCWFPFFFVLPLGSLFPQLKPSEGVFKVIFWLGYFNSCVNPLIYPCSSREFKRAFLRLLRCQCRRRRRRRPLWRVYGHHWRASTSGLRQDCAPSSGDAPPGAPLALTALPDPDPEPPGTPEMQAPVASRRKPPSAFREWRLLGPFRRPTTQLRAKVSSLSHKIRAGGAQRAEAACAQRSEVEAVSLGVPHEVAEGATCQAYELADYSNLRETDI
Description: PDSP Primary Binding target: ADRA1D - Compounds are tested at 10 uM concentration, plate are incubated at room temperature in the dark for 90 minutes. Reaction are stopped by vacuum filtration onto 0.3% polyethyleneimine soaked filter mats using Filtermate harvester. Scintilation cocktail is then melted onto microwave-dried filters on a hot plate and the radio activity is counted in Microbia counter.

The target of assay [7] is Delta-type opioid receptor (Homo sapiens) (UniProt P41143).
Description: PDSP Primary Binding target: OPRD1 - Compounds are tested at 10 uM concentration, plate are incubated at room temperature in the dark for 90 minutes. Reaction are stopped by vacuum filtration onto 0.3% polyethyleneimine soaked filter mats using Filtermate harvester. Scintilation cocktail is then melted onto microwave-dried filters on a hot plate and the radio activity is counted in Microbia counter.
Assay [8] has as its target T5, Alpha-1A adrenergic receptor (Homo sapiens) (UniProt P35348).
T5 sequence (whole entry): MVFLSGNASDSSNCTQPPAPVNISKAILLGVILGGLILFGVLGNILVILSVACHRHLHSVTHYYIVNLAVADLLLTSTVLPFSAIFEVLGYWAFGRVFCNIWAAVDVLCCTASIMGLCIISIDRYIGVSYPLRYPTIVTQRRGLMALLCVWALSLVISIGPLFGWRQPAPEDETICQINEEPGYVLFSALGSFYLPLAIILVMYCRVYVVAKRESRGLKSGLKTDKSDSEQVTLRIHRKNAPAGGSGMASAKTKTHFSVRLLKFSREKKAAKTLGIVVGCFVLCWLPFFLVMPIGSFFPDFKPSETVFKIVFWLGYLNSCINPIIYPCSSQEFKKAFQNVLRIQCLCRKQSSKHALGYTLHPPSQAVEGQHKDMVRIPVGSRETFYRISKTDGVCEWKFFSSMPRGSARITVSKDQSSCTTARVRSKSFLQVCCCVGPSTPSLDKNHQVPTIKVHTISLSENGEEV
Description: PDSP Primary Binding target: ADRA1A - Compounds are tested at 10 uM concentration, plate are incubated at room temperature in the dark for 90 minutes. Reaction are stopped by vacuum filtration onto 0.3% polyethyleneimine soaked filter mats using Filtermate harvester. Scintilation cocktail is then melted onto microwave-dried filters on a hot plate and the radio activity is counted in Microbia counter.

Sequence of Histamine H1 receptor (Homo sapiens) (P35367 whole entry): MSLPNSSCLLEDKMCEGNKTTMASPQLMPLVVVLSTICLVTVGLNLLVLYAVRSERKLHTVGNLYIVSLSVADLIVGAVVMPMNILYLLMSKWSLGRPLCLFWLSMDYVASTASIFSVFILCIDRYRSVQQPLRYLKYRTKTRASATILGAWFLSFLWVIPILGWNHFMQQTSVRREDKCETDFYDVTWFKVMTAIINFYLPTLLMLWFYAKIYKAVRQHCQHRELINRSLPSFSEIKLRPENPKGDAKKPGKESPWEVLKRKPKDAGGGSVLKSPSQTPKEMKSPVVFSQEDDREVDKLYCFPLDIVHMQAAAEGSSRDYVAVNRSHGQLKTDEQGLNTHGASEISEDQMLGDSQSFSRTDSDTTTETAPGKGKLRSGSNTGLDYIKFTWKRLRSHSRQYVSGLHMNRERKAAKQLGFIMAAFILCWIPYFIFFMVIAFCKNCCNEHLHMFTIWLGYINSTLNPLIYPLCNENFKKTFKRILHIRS
Sequence of 5-hydroxytryptamine receptor 5A (Homo sapiens) (P47898 whole entry): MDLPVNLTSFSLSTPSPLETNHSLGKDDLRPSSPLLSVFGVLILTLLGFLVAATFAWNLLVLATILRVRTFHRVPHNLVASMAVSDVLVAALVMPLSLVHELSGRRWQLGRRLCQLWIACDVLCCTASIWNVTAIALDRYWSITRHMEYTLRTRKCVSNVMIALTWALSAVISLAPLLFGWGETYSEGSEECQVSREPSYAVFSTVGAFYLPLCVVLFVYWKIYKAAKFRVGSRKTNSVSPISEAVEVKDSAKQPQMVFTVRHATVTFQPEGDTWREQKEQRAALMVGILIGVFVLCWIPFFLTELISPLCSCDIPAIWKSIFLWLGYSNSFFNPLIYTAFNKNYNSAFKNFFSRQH
Sequence of Delta-type opioid receptor (Homo sapiens) (P41143 whole entry): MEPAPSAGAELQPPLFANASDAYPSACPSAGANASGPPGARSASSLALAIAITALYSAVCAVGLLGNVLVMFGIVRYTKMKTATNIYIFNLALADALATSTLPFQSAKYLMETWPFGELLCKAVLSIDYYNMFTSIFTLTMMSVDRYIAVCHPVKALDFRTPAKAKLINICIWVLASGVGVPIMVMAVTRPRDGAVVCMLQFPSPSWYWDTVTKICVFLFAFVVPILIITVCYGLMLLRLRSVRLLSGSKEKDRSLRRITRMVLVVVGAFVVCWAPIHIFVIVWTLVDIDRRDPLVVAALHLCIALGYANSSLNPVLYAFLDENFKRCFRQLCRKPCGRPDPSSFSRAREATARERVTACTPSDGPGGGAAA

As usually defined, the inhibition is the change of the read-out against control, counted positive when it falls. Take `C[C@H](NC[C@H](O)CP(=O)(O)CC1CCCCC1)c1ccc(Cl)c(Cl)c1`: the inhibition was 9.98% in assay [1]; -3.27% in assay [2]; 40.4% in assay [3]; -8.92% in assay [4]; 6.11% in assay [5]; 8.86% in assay [6]. Also, the values for the inhibition in assay [7] and in assay [8] were -5.34% and 1.74%, respectively.

Turning to `CCCCCNC(=N)N/N=C/c1c[nH]c2ccc(OC)cc12`, the inhibition in assay [1] was 31.1%; in assay [2], 0.53%; in assay [3], 38.2%; in assay [4], 97.6%; in assay [5] it was 62.5%; in assay [6], 55.8%. Also, the inhibition was 12.6% in assay [7] and 53.9% in assay [8].

With `COc1cc(-n2cnc3cc(-c4ccc(Cl)cc4)sc3c2=O)ccc1OCCN1CCCC1`, the inhibition in assay [1] was 42.2%; in assay [2], 73.8%; in assay [3], 71.5%; in assay [4], 85.3%; in assay [5], 27.2%; in assay [6] it was 53.1%. The inhibition in assay [7] is 28.9%; in assay [8], 37.3%.

As to `COc1ccc(NS(=O)(=O)c2sc3ccc(Cl)cc3c2C)cc1N1CCNCC1`, the inhibition in assay [1] is 15.6%; in assay [2] it was 5.58%; in assay [3], 17%; in assay [4], 58.1%; in assay [5], 65.1%; in assay [6], 33%. Further, the results for the inhibition in assay [7] and in assay [8] were 29.8% and 39.7%, respectively.

In the case of `CCc1ccc(OCc2ccccc2C(=O)Nc2ccc3nc(C)cc(N)c3c2)cc1`, the inhibition was 7.44% in assay [1]; 65.2% in assay [2]; 11.9% in assay [3]; 52.3% in assay [4]; 60.5% in assay [5]; 57.8% in assay [6]. For the same compound, the inhibition in assay [7] is -2.98%; in assay [8], 45.6%.

Take `Cc1nc2sccn2c(=O)c1CCN1CCC(=C(c2ccc(F)cc2)c2ccc(F)cc2)CC1`: the inhibition was 98.3% in assay [1]; 1.18% in assay [2]; 34.1% in assay [3]; 94% in assay [4]; 95.9% in assay [5]; 97.8% in assay [6]. The inhibition in assay [7] was 17.7%; in assay [8], 96.8%.

For `Cc1nc(-c2ccc(-c3ccc(C(=O)N4CCc5cc6c(cc54)C4(CCN(C)CC4)CO6)cc3)c(C)c2)no1`, the inhibition is 33.8% in assay [1]; 23% in assay [2]; 44.5% in assay [3]; 14% in assay [4]; 16.4% in assay [5]; 66.3% in assay [6]. Also, the inhibition in assay [7] is -1.39%; in assay [8], 27.9%.

On to `O=S1(=O)c2cccc3cccc(c23)N1CCCN1CCN(c2ccc(F)cc2)CC1`, for which the inhibition in assay [1] was 96.9%; in assay [2], 1.66%; in assay [3] it was 10.3%; in assay [4] it was 58.9%; in assay [5], 98.1%; in assay [6] it was 92%. Moreover, the figures for the inhibition in assay [7] and in assay [8] were 8.66% and 97.8%, respectively.

In the case of `CC(C)NCC(O)COc1ccc(CCOCC2CC2)cc1` (configuration not stated), the inhibition was 1.05% in assay [1]; 22.5% in assay [2]; -4.15% in assay [3]; -3.84% in assay [4]; 19.5% in assay [5]; 5.75% in assay [6]. The inhibition in assay [7] was 3.69%; in assay [8], -7.39%.

Consider `Oc1ccc2c3c1O[C@H]1c4[nH]c5c(c4C[C@@]4(O)[C@@H](C2)N(CC2CC2)CC[C@]314)C[C@@]1(O)[C@H]2Cc3ccc(O)c4c3[C@@]1(CCN2CC1CC1)[C@H]5O4`, for which the inhibition in assay [1] was 9.21%; in assay [2] it was -2.79%; in assay [3], 0.51%; in assay [4], 8.31%; in assay [5] it was -1.68%; in assay [6], 4.88%. Further, the inhibition in assay [7] is 93.5%; in assay [8], 30.1%.

Regarding `CCOC(=O)c1c(C)[nH]c2ccc3c(c12)CN1CCc2cc(OC)ccc2C1O3` (configuration not stated), the inhibition in assay [1] is 24.9%; in assay [2] it was 92.3%; in assay [3], 22.6%; in assay [4], 31%; in assay [5], 27.5%; in assay [6] it was 36.5%. In addition, the inhibition in assay [7] is -2.17%; in assay [8], 41.3%.

As to `CCCCC#Cc1nc(NC)c2ncn([C@@H]3O[C@H](CO)[C@@H](O)[C@H]3O)c2n1`, the inhibition is 20.6% in assay [1]; 0.76% in assay [2]; 22.8% in assay [3]; -6.71% in assay [4]; 8.1% in assay [5]; -1.99% in assay [6]. The inhibition in assay [7] is 9.12%; in assay [8] it was -3.3%.

As for `N#Cc1c(N)nc(SCC(N)=O)c(C#N)c1-c1ccc(OCC2CC2)cc1`, the inhibition in assay [1] was 22.6%; in assay [2], 34.5%; in assay [3] it was -6.03%; in assay [4], 7.71%; in assay [5], -6.52%; in assay [6], 0.73%. In addition, the inhibition in assay [7] is -1.99%; in assay [8], 16.2%.

With `N#Cc1ccc2[nH]cc(CCCCN3CCN(c4ccc5oc(C(N)=O)cc5c4)CC3)c2c1`, the inhibition in assay [1] was 85.8%; in assay [2], 5.32%; in assay [3], -4.48%; in assay [4] it was 40.6%; in assay [5] it was 53.7%; in assay [6] it was 75.5%. Further, the inhibition is 35.4% in assay [7] and 95.5% in assay [8].

The values are drawn from ChEMBL document CHEMBL5442219.
